In patent publication US9963464B2, “Macrocyclic compounds” (Bayer Pharma Aktiengesellschaft, priority 2014, dated 2018):
pIC50: −log10 of the molar value.

Legend:
[1] = test system: DU145 cells; experiment: Proliferation assay DU145; type: cell-based, human; conditions: Homo sapiens, DU-145, 96 h, 4 days, crystal violet; read-out: Inhibition of DU145 cell proliferation IC50
Procedure: (§1) Cultivated tumour cells (HeLa, human cervical tumour cells, ATCC CCL-2; NCI-H460, human non-small cell lung carcinoma cells, ATCC HTB-177; A2780, human ovarian carcinoma cells, ECACC #93112519; DU 145, hormone-independent human prostate carcinoma cells, ATCC HTB-81; HeLa-MaTu-ADR, multidrug-resistant human cervical carcinoma cells, EPO-GmbH Berlin; Caco-2, human colorectal carcinoma cells, ATCC HTB-37; B16F10, mouse melanoma cells, ATCC CRL-6475) were plated at a density of 5,000 cells/well (DU145, HeLa-MaTu-ADR), 3,000 cells/well (NCI-H460, HeLa), 2,500 cells/well (A2780), 1,500 cells/well (Caco-2), or 1,000 cells/well (B16F10) in a 96-well multititer plate in 200 μL of their respective growth medium supplemented 10% fetal calf serum. After 24 hours, the cells of one plate (zero-point plate) were stained with crystal violet (see below), while the medium of the other plates was replaced by fresh culture medium (200 μl), to which the test substances were added in various concentrations (0 μM, as well as in the range of 0.001-10 μM). The cells were incubated for 4 days in the presence of test substances. Cell proliferation was determined by staining the cells with crystal violet: the cells were fixed by adding 20 μl/measuring point of an 11% glutaric aldehyde solution for 15 minutes at room temperature. After three washing cycles of the fixed cells with water, the plates were dried at room temperature. The cells were stained by adding 100 μl/measuring point of a 0.1% crystal violet solution (pH 3.0). After three washing cycles of the stained cells with water, the plates were dried at room temperature. The dye was dissolved by adding 100 μl/measuring point of a 10% acetic acid solution. The extinction was determined by photometry at a wavelength of 595 nm. The change of cell number, in percent, was calculated by normalization of the measured values to the extinction values of the zero-point plate (=0%) and the extinction of the untreated (0 μm) cells (=100%). The IC50 values (inhibitory concentration at 50% of maximal effect) were determined by means of a 4 parameter fit. Non-adherent MOLM-13 human acute myeloid leukemia cells (DSMZ ACC 554) were seeded at a density of 5,000 cells/well in a 96-well multititer plate in 100 μL of growth medium supplemented 10% fetal calf serum. After 24 hours, cell viability of one plate (zero-point plate) was determined with the Cell Titre-Glo Luminescent Cell Viability Assay (Promega), while 50 μL of test compound containing medium was added to the wells of the other plates (final concentrations in the range of 0.001-1 μM and DMSO controls). Cell viability was assessed after 72-hour exposure with the Cell Titre-Glo Luminescent Cell Viability Assay (Promega). IC50 values (inhibitory concentration at 50% of maximal effect) were determined by means of a 4 parameter fit on measurement data which were normalized to vehicle (DMSO) treated cells (=100%) and measurement readings taken immediately before compound exposure (=0%).

[2] = test system: B16F10 cells; experiment: Proliferation assay B16F10; type: cell-based, mouse; conditions: Mus musculus, B16-F10, 96 h; 4 days, crystal violet; read-out: Inhibition of B16F10 cell proliferation IC50
Procedure: as §1

[3] = test system: Caco-2 cells; experiment: Proliferation assay Caco-2; type: cell-based, human; conditions: Homo sapiens, Caco-2, 96 h, 4 days, crystal violet; read-out: Inhibition of Caco-2 cell proliferation IC50
Procedure: as §1

[4] = biological target: T1, CDK9/CycT1 (Homo sapiens, UniProt P50750); experiment: CDK9/CycT1 high ATP kinase assay (TR-FRET, Method 1b); type: biochemical; conditions: for pIC50: Method 1b, 2 mM ATP; for Selectivity high ATP CDK9 over high ATP CDK2: IC50 (high ATP CDK2)/IC50 (high ATP CDK9): Methods 1b and 2b, minimal values where CDK9 IC50 is at the assay limit
T1 construct: Recombinant full-length His-tagged human CDK9 and CycT1; His; purchased Invitrogen PV4131; host or cells: insect cells
T1 sequence (P50750 whole entry): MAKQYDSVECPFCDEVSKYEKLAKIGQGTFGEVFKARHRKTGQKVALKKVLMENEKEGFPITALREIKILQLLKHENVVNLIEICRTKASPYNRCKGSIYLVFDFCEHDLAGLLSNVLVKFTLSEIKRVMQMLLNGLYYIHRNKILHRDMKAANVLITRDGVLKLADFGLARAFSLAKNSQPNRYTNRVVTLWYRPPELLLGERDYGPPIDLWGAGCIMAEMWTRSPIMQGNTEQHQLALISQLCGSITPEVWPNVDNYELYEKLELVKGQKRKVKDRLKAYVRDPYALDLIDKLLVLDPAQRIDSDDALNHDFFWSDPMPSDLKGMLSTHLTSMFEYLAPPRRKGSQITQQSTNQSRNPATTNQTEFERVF
T1 sequence (O60563 whole entry partner): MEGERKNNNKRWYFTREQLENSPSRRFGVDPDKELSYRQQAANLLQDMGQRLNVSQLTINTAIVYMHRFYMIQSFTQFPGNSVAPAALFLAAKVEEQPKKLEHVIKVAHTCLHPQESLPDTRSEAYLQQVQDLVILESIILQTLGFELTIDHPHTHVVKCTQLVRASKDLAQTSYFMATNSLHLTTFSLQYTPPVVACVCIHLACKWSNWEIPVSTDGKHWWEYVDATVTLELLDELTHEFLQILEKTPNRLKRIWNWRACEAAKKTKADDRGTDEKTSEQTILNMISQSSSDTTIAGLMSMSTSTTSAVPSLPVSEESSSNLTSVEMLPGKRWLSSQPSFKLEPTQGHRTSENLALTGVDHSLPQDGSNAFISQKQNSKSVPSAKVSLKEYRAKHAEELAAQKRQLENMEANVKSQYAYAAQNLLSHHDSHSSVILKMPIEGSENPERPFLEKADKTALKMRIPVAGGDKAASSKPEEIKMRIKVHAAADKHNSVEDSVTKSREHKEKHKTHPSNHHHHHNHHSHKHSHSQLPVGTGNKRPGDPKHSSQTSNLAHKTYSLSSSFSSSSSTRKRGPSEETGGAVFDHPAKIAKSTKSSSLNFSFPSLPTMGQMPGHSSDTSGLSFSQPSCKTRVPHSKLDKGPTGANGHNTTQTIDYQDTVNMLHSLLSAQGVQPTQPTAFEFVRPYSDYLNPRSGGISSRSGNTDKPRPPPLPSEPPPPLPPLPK
Procedure: 1b. CDK9/CycT1 High ATP Kinase Assay
CDK9/CycT1-inhibitory activity of compounds of the present invention at a high ATP concentration after preincubation of enzyme and test compounds was quantified employing the CDK9/CycT1 TR-FRET assay as described in the following paragraphs.
Recombinant full-length His-tagged human CDK9 and CycT1, expressed in insect cells and purified by Ni-NTA affinity chromatography, were purchase from Invitrogen (Cat. No PV4131). As substrate for the kinase reaction biotinylated peptide biotin-Ttds-YISPLKSPYKISEG (C-terminus in amid form) was used which can be purchased e.g. from the company JERINI peptide technologies (Berlin, Germany). For the assay 50 nl of a 100 fold concentrated solution of the test compound in DMSO was pipetted into a black low volume 384 well microtiter plate (Greiner Bio-One, Frickenhausen, Germany), 2 μl of a solution of CDK9/CycT1 in aqueous assay buffer [50 mM Tris/HCl pH 8.0, 10 mM MgCl2, 1.0 mM dithiothreitol, 0.1 mM sodium ortho-vanadate, 0.01% (v/v) Nonidet-P40 (Sigma)] were added and the mixture was incubated for 15 min at 22° C. to allow pre-binding of the test compounds to the enzyme before the start of the kinase reaction. […] The concentration of CDK9/CycT1 was adjusted depending of the activity of the enzyme lot and was chosen appropriate to have the assay in the linear range, typical concentrations were in the range of 0.5 μg/mL. The reaction was stopped by the addition of 5 μl of a solution of TR-FRET detection reagents (0.2 μM streptavidine-XL665 [Cisbio Bioassays, Codolet, France] and 1 nM anti-RB(pSer807/pSer811)-antibody from BD Pharmingen [#558389] and 1.2 nM LANCE EU-W1024 labeled anti-mouse IgG antibody [Perkin-Elmer, product no. AD0077]) in an aqueous EDTA-solution (100 mM EDTA, 0.2% (w/v) bovine serum albumin in 100 mM HEPES pH 7.5).
The resulting mixture was incubated 1 h at 22° C. to allow the formation of complex between the phosphorylated biotinylated peptide and the detection reagents. Subsequently the amount of phosphorylated substrate was evaluated by measurement of the resonance energy transfer from the Eu-chelate to the streptavidine-XL. Therefore, the fluorescence emissions at 620 nm and 665 nm after excitation at 350 nm was measured in a HTRF reader, e.g. a Rubystar (BMG Labtechnologies, Offenburg, Germany) or a Viewlux (Perkin-Elmer). The ratio of the emissions at 665 nm and at […] was taken as the measure for the amount of phosphorylated substrate. The data were normalised (enzyme reaction without inhibitor=0% inhibition, all other assay components but no enzyme=100% inhibition).

[5] = test system: HeLa-MaTu-ADR cells; experiment: Proliferation assay HeLa-MaTu-ADR; type: cell-based, human; conditions: Homo sapiens, 96 h, 4 days, crystal violet; read-out: Inhibition of HeLa-MaTu-ADR cell proliferation IC50
Procedure: as §1

[6] = test system: NCI-H460 cells; experiment: Proliferation assay NCI-H460; type: cell-based, human; conditions: Homo sapiens, NCI-H460, 96 h, 4 days, crystal violet; read-out: Inhibition of NCI-H460 cell proliferation IC50
Procedure: as §1

pIC50 [1] | pIC50 [2] | pIC50 [3] | pIC50 [4] | Selectivity high ATP CDK9 over high ATP CDK2: IC50 (high ATP CDK2)/IC50 (high ATP CDK9) [4] | pIC50 [5] | pIC50 [6] | SMILES
7.77 | 7.64 | 7.77 | 8.72 | 123.6 | 7.85 | 7.52 | CS(=N)(=O)Cc1cc2cc(c1)OCCCOc1cc(F)ccc1-c1nc(ncc1F)N2 (racemic) [Example 15, (rac)-15,19-difluoro-8-[(S-methylsulfonimidoyl)methyl]-3,4-dihydro-2H,11H-12,16-(azeno)-10,6-(metheno)-1,5,11,13-benzodioxadiazacyclooctadecine]
7.80 | 7.66 | 7.89 | 8.44 | 45.3 | 7.70 | 7.72 | CS(=N)(=O)Cc1cc2nc(c1)OCCCCOc1cc(F)ccc1-c1cc(ncc1F)N2 (racemic) [Example 14, (rac)-16,20-difluoro-9-[(S-methylsulfonimidoyl)methyl]-2,3,4,5-tetrahydro-12H-11,7-(azeno)-13,17-(metheno)-1,6,12,14-benzodioxadiazacyclononadecine]
6.95 | 6.78 | 7.52 | 8.37 | 149.6 | 7.11 | 7.25 | CSCc1cc2cc(c1)OCCCOc1cc(F)ccc1-c1nc(ncc1F)N2 [Example 2, 15,19-Difluoro-8-[(methylsulfanyl)methyl]-3,4-dihydro-2H,11H-12,16-(azeno)-10,6-(metheno)-1,5,11,13-benzodioxadiazacyclooctadecine]
6.49 | 6.39 | 6.23 | 7.56 | 125.7 | 6.32 | 6.41 | C[S+]([O-])Cc1cc2nc(c1)OCCOc1cc(F)ccc1-c1cc(ncc1F)N2 (racemic) [Example 10, (rac)-14,18-difluoro-7-[(methylsulfinyl)methyl]-2,3-dihydro-10H-9,5-(azeno)-11,15-(metheno)-1,4,10,12-benzodioxadiazacycloheptadecine]
7.77 | 7.74 | 7.82 | 8.41 | 172 | 7.92 | 7.59 | CS(=O)(Cc1cc2cc(c1)OCCCOc1cc(F)ccc1-c1nc(ncc1F)N2)=NC(=O)C(F)(F)F (racemic) [Example 16, (rac)-N-[{[15,19-difluoro-3,4-dihydro-2H,11H-12,16-(azeno)-10,6-(metheno)-1,5,11,13-benzodioxadiazacyclooctadecin-8-yl]methyl}(methyl)oxido-λ^6-sulfanylidene]-2,2,2-trifluoroacetamide]
7.40 | – | 7.57 | 8.57 | 71.6 | 7.70 | 7.44 | CS(=O)(=O)N=S(C)(=O)Cc1cc2nc(c1)OCCCOc1cc(F)ccc1-c1cc(ncc1F)N2 (racemic) [Example 22, (rac)-N-[{[15,19-difluoro-3,4-dihydro-2H,11H-10,6-(azeno)-12,16-(metheno)-1,5,11,13-benzodioxadiazacyclooctadecin-8-yl]methyl}(methyl)oxido-λ^6-sulfanylidene]methanesulfonamide]
7.26 | – | 7.62 | 8.47 | 13.2 | 7.52 | 7.46 | CCOC(=O)N=S(C)(=O)Cc1cc2nc(c1)OCCCOc1cc(F)ccc1-c1cc(ncc1F)N2 (racemic) [Example 20, (rac)-ethyl [{[15,19-difluoro-3,4-dihydro-2H,11H-10,6-(azeno)-12,16-(metheno)-1,5,11,13-benzodioxadiazacyclooctadecin-8-yl]methyl}(methyl)oxido-λ^6-sulfanylidene]carbamate]
6.41 | – | 6.48 | 8.47 | 13.0 | 6.53 | 6.40 | NCCS(=O)(=O)Cc1cc2nc(c1)OCCCOc1cc(F)ccc1-c1cc(ncc1F)N2 [Example 26, 2-({[15,19-difluoro-3,4-dihydro-2H,11H-10,6-(azeno)-12,16-(metheno)-1,5,11,13-benzodioxadiazacyclooctadecin-8-yl]methyl}sulfonyl)ethanamine]
8.00 | 7.85 | 8.05 | 8.77 | 125.3 | – | 7.70 | CS(=N)(=O)Cc1cc2cc(c1)OCCCCOc1cc(F)ccc1-c1nc(ncc1F)N2 (racemic) [Example 1, (rac)-16,20-Difluoro-9-[(S-methylsulfonimidoyl)methyl]-2,3,4,5-tetrahydro-12H-13,17-(azeno)-11,7-(metheno)-1,6,12,14-benzodioxadiazacyclononadecine]
8.40 | 8.40 | 8.40 | 9.01 | 20.8 | – | 8.22 | CS(=N)(=O)Cc1cc2nc(c1)OCCCOc1cc(F)ccc1-c1cc(ncc1F)N2 (racemic) [Example 5, (rac)-15,19-Difluoro-8-[(S-methylsulfonimidoyl)methyl]-3,4-dihydro-2H,11H-10,6-(azeno)-12,16-(metheno)-1,5,11,13-benzodioxadiazacyclooctadecine]
